Laboratory results from US9487502B2, “Chemical compounds” (Syngenta Limited, priority 2013, dated 2016).

Columns and labels:
Type in all cases: in vivo
Design in all cases: key: 5=total damage to plant; 0=no damage to plant
Abutilon theophrasti [1] = experiment: Pre-emergence herbicidal activity, ABUTH; conditions: 1000 g/Ha, sprayed pre-emergence, evaluated after 13 days, scale 0-5
Procedure: (§1) Seeds of a variety of test species were sown in standard soil in pots. After cultivation for one day (pre-emergence) under controlled conditions in a glasshouse (at 24/16° C., day/night; 14 hours light; 65% humidity), the plants were sprayed with an aqueous spray solution derived from the formulation of the technical active ingredient in acetone/water (50:50) solution containing 0.5% Tween 20 (polyoxyethelyene sorbitan monolaurate, CAS RN 9005-64-5). The test plants were then grown in a glasshouse under controlled conditions (at 24/16° C., day/night; 14 hours light; 65% humidity) and watered twice daily. After 13 days, the test was evaluated (5=total damage to plant; 0=no damage to plant).

Amaranthus retroflexus [2] = experiment: Pre-emergence herbicidal activity, AMARE; conditions: 1000 g/Ha, sprayed pre-emergence, evaluated after 13 days, scale 0-5
Procedure: as §1

Setaria faberi [3] = experiment: Pre-emergence herbicidal activity, SETFA; conditions: 1000 g/Ha, sprayed pre-emergence, evaluated after 13 days, scale 0-5
Procedure: as §1

Echinochloa crus-galli [4] = experiment: Pre-emergence herbicidal activity, ECHCG; conditions: 1000 g/Ha, sprayed pre-emergence, evaluated after 13 days, scale 0-5
Procedure: as §1

Alopecurus myosuroides [5] = experiment: Pre-emergence herbicidal activity, ALOMY; conditions: 1000 g/Ha, sprayed pre-emergence, evaluated after 13 days, scale 0-5
Procedure: as §1

Zea mays [6] = experiment: Pre-emergence herbicidal activity, ZEAMX; conditions: 1000 g/Ha, sprayed pre-emergence, evaluated after 13 days, scale 0-5
Procedure: as §1

Setaria faberi [7] = experiment: Post-emergence herbicidal activity, SETFA; conditions: 1000 g/Ha, sprayed post-emergence (8 days cultivation), evaluated after 13 days, scale 0-5
Procedure: (§2) Seeds of a variety of test species were sown in standard soil in pots. After 8 days cultivation (post-emergence) under controlled conditions in a glasshouse (at 24/16° C., day/night; 14 hours light; 65% humidity), the plants were sprayed with an aqueous spray solution derived from the formulation of the technical active ingredient in acetone/water (50:50) solution containing 0.5% Tween 20 (polyoxyethelyene sorbitan monolaurate, CAS RN 9005-64-5). The test plants were then grown in a glasshouse under controlled conditions (at 24/16° C., day/night; 14 hours light; 65% humidity) and watered twice daily. After 13 days, the test was evaluated (5=total damage to plant; 0=no damage to plant).

Abutilon theophrasti [8] = experiment: Post-emergence herbicidal activity, ABUTH; conditions: 1000 g/Ha, sprayed post-emergence (8 days cultivation), evaluated after 13 days, scale 0-5
Procedure: as §2

Amaranthus retroflexus [9] = experiment: Post-emergence herbicidal activity, AMARE; conditions: 1000 g/Ha, sprayed post-emergence (8 days cultivation), evaluated after 13 days, scale 0-5
Procedure: as §2

Alopecurus myosuroides [10] = experiment: Post-emergence herbicidal activity, ALOMY; conditions: 1000 g/Ha, sprayed post-emergence (8 days cultivation), evaluated after 13 days, scale 0-5
Procedure: as §2

Echinochloa crus-galli [11] = experiment: Post-emergence herbicidal activity, ECHCG; conditions: 1000 g/Ha, sprayed post-emergence (8 days cultivation), evaluated after 13 days, scale 0-5
Procedure: as §2

Zea mays [12] = experiment: Post-emergence herbicidal activity, ZEAMX; conditions: 1000 g/Ha, sprayed post-emergence (8 days cultivation), evaluated after 13 days, scale 0-5
Procedure: as §2

## CCOC1C(O)N(c2cc(C(C)(C)C)ncn2)C(=O)N1CC (stereo not drawn) [Example A27]
Abutilon theophrasti [1]
  ABUTH damage score, application pre-emergence: 1
Amaranthus retroflexus [2]
  AMARE damage score, application pre-emergence: 1
Setaria faberi [3]
  SETFA damage score, application pre-emergence: 0
Echinochloa crus-galli [4]
  ECHCG damage score, application pre-emergence: 0
Alopecurus myosuroides [5]
  ALOMY damage score, application pre-emergence: 0
Zea mays [6]
  ZEAMX damage score, application pre-emergence: 0
Setaria faberi [7]
  SETFA damage score, application post-emergence: 3
Abutilon theophrasti [8]
  ABUTH damage score, application post-emergence: 4
Amaranthus retroflexus [9]
  AMARE damage score, application post-emergence: 0
Alopecurus myosuroides [10]
  ALOMY damage score, application post-emergence: 1
Echinochloa crus-galli [11]
  ECHCG damage score, application post-emergence: 0
Zea mays [12]
  ZEAMX damage score, application post-emergence: 2

## CCCOC1C(OCCC)N(c2cc(C(C)(C)C)ncn2)C(=O)N1C (stereo not drawn) [Example A28]
Abutilon theophrasti [1]
  ABUTH damage score, application pre-emergence: 0
Amaranthus retroflexus [2]
  AMARE damage score, application pre-emergence: 0
Setaria faberi [3]
  SETFA damage score, application pre-emergence: 0
Echinochloa crus-galli [4]
  ECHCG damage score, application pre-emergence: 0
Alopecurus myosuroides [5]
  ALOMY damage score, application pre-emergence: 0
Zea mays [6]
  ZEAMX damage score, application pre-emergence: 0
Setaria faberi [7]
  SETFA damage score, application post-emergence: 0
Abutilon theophrasti [8]
  ABUTH damage score, application post-emergence: 0
Amaranthus retroflexus [9]
  AMARE damage score, application post-emergence: 0
Alopecurus myosuroides [10]
  ALOMY damage score, application post-emergence: 0
Echinochloa crus-galli [11]
  ECHCG damage score, application post-emergence: 0
Zea mays [12]
  ZEAMX damage score, application post-emergence: 0

## C=CC1C(O)N(c2cc(C(C)(C)C)ncn2)C(=O)N1C (stereo not drawn) [Example A29]
Abutilon theophrasti [1]
  ABUTH damage score, application pre-emergence: 5
Amaranthus retroflexus [2]
  AMARE damage score, application pre-emergence: 5
Setaria faberi [3]
  SETFA damage score, application pre-emergence: 4
Echinochloa crus-galli [4]
  ECHCG damage score, application pre-emergence: 4
Alopecurus myosuroides [5]
  ALOMY damage score, application pre-emergence: 4
Zea mays [6]
  ZEAMX damage score, application pre-emergence: 1
Setaria faberi [7]
  SETFA damage score, application post-emergence: 5
Abutilon theophrasti [8]
  ABUTH damage score, application post-emergence: 5
Amaranthus retroflexus [9]
  AMARE damage score, application post-emergence: 5
Alopecurus myosuroides [10]
  ALOMY damage score, application post-emergence: 4
Echinochloa crus-galli [11]
  ECHCG damage score, application post-emergence: 4
Zea mays [12]
  ZEAMX damage score, application post-emergence: 1

## COCC1NC(=O)N(c2cc(C(C)(C)C)ncn2)C1O (stereo not drawn) [Example A30]
Abutilon theophrasti [1]
  ABUTH damage score, application pre-emergence: 5
Amaranthus retroflexus [2]
  AMARE damage score, application pre-emergence: 5
Setaria faberi [3]
  SETFA damage score, application pre-emergence: 4
Echinochloa crus-galli [4]
  ECHCG damage score, application pre-emergence: 4
Alopecurus myosuroides [5]
  ALOMY damage score, application pre-emergence: 4
Zea mays [6]
  ZEAMX damage score, application pre-emergence: 1
Setaria faberi [7]
  SETFA damage score, application post-emergence: 4
Abutilon theophrasti [8]
  ABUTH damage score, application post-emergence: 5
Amaranthus retroflexus [9]
  AMARE damage score, application post-emergence: 5
Alopecurus myosuroides [10]
  ALOMY damage score, application post-emergence: 4
Echinochloa crus-galli [11]
  ECHCG damage score, application post-emergence: 3
Zea mays [12]
  ZEAMX damage score, application post-emergence: 1

## CN1C(=O)N(c2cc(C(C)(C)C)ncn2)C(O)C1C(F)(F)F (stereo not drawn) [Example A31]
Abutilon theophrasti [1]
  ABUTH damage score, application pre-emergence: 2
Amaranthus retroflexus [2]
  AMARE damage score, application pre-emergence: 2
Setaria faberi [3]
  SETFA damage score, application pre-emergence: 4
Echinochloa crus-galli [4]
  ECHCG damage score, application pre-emergence: 3
Alopecurus myosuroides [5]
  ALOMY damage score, application pre-emergence: 3
Zea mays [6]
  ZEAMX damage score, application pre-emergence: 0
Setaria faberi [7]
  SETFA damage score, application post-emergence: 5
Abutilon theophrasti [8]
  ABUTH damage score, application post-emergence: 5
Amaranthus retroflexus [9]
  AMARE damage score, application post-emergence: 1
Alopecurus myosuroides [10]
  ALOMY damage score, application post-emergence: 4
Echinochloa crus-galli [11]
  ECHCG damage score, application post-emergence: 3
Zea mays [12]
  ZEAMX damage score, application post-emergence: 1

## CC1NC(=O)N(c2cc(C(C)(C)C)ncn2)C1O (stereo not drawn) [Example A32]
Abutilon theophrasti [1]
  ABUTH damage score, application pre-emergence: 3
Amaranthus retroflexus [2]
  AMARE damage score, application pre-emergence: 2
Setaria faberi [3]
  SETFA damage score, application pre-emergence: 1
Echinochloa crus-galli [4]
  ECHCG damage score, application pre-emergence: 1
Alopecurus myosuroides [5]
  ALOMY damage score, application pre-emergence: 1
Zea mays [6]
  ZEAMX damage score, application pre-emergence: 0
Setaria faberi [7]
  SETFA damage score, application post-emergence: 2
Abutilon theophrasti [8]
  ABUTH damage score, application post-emergence: 5
Amaranthus retroflexus [9]
  AMARE damage score, application post-emergence: 2
Alopecurus myosuroides [10]
  ALOMY damage score, application post-emergence: 3
Echinochloa crus-galli [11]
  ECHCG damage score, application post-emergence: 2
Zea mays [12]
  ZEAMX damage score, application post-emergence: 1

## CN1C(=O)N(c2cc(C(C)(C)C)ncn2)C(O)C1CC(F)(F)F (stereo not drawn) [Example A34]
Abutilon theophrasti [1]
  ABUTH damage score, application pre-emergence: 4
Amaranthus retroflexus [2]
  AMARE damage score, application pre-emergence: 5
Setaria faberi [3]
  SETFA damage score, application pre-emergence: 2
Echinochloa crus-galli [4]
  ECHCG damage score, application pre-emergence: 1
Alopecurus myosuroides [5]
  ALOMY damage score, application pre-emergence: 1
Zea mays [6]
  ZEAMX damage score, application pre-emergence: 0
Setaria faberi [7]
  SETFA damage score, application post-emergence: 3
Abutilon theophrasti [8]
  ABUTH damage score, application post-emergence: 5
Amaranthus retroflexus [9]
  AMARE damage score, application post-emergence: 2
Alopecurus myosuroides [10]
  ALOMY damage score, application post-emergence: 3
Echinochloa crus-galli [11]
  ECHCG damage score, application post-emergence: 0
Zea mays [12]
  ZEAMX damage score, application post-emergence: 2

## CC1C(OC(=O)Nc2ccc([N+](=O)[O-])cc2)N(c2cc(C(C)(C)C)ncn2)C(=O)N1C (stereo not drawn) [Example A36]
Abutilon theophrasti [1]
  ABUTH damage score, application pre-emergence: 5
Amaranthus retroflexus [2]
  AMARE damage score, application pre-emergence: 5
Setaria faberi [3]
  SETFA damage score, application pre-emergence: 4
Echinochloa crus-galli [4]
  ECHCG damage score, application pre-emergence: 4
Alopecurus myosuroides [5]
  ALOMY damage score, application pre-emergence: 4
Zea mays [6]
  ZEAMX damage score, application pre-emergence: 3
Setaria faberi [7]
  SETFA damage score, application post-emergence: 5
Abutilon theophrasti [8]
  ABUTH damage score, application post-emergence: 5
Amaranthus retroflexus [9]
  AMARE damage score, application post-emergence: 5
Alopecurus myosuroides [10]
  ALOMY damage score, application post-emergence: 5
Echinochloa crus-galli [11]
  ECHCG damage score, application post-emergence: 5
Zea mays [12]
  ZEAMX damage score, application post-emergence: 5
